This note sets out measurements from patent US12479850B2, “Compound having Axl and c-Met kinase inhibitory activity, preparation thereof and application thereof” (Shanghai Institute of Materia Medica, Chinese Academy of …, priority 2019, dated 2025).

In assay [1] the target is T1, Axl kinase domain recombinant protein (Homo sapiens, UniProt P30530).
T1 sequence (P30530 536-807 limits assumed): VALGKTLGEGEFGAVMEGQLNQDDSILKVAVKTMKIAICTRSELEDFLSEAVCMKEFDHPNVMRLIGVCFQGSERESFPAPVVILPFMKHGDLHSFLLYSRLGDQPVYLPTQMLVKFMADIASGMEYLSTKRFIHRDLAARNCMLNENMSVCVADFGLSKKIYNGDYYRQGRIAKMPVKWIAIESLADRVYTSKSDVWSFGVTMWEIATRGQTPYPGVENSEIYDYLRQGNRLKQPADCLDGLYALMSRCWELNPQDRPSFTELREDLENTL
Description: ELISA kinase activity assay, Axl. (ELISA stands for enzyme-linked immunosorbent assay.)

Assay [2] has as its target c-Met kinase domain recombinant protein (Homo sapiens, UniProt P08581). Description: ELISA kinase activity assay, c-Met.

c-Met kinase domain recombinant protein, sequence (P08581 1078-1345 limits assumed): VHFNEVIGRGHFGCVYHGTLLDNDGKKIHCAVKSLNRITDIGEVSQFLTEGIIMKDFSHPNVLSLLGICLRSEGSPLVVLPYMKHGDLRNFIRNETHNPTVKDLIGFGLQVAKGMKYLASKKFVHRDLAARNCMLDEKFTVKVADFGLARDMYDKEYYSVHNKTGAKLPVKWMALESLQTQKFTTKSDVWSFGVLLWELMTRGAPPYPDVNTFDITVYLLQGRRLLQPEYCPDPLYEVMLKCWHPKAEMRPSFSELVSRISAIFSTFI

For the compound `Cn1cc(-c2cc(Oc3ccc(NC(=O)c4cn(CCO)c(=O)n(-c5ccc(F)cc5)c4=O)cc3F)ccn2)cn1` [No. 9, N-(3-fluoro-4-((2-(1-methyl-1H-pyrazol-4-yl)pyridin-4-yl)oxy)phenyl)-3-(4-fluorophenyl)-1-(2-hydroxyethyl)-2,4-dioxo-1,2,3,4-tetrahydropyrimidin-5-carboxamide], the values for the 50% inhibitory concentration (IC50) in assay [1] and in assay [2] were above 100 nM and 10 to 100 nM, respectively.

On to `COCCn1cc(C(=O)Nc2ccc(Oc3ccnc(-c4cnn(C)c4)c3)c(F)c2)c(=O)n(-c2ccc(F)cc2)c1=O` [No. 10, N-(3-fluoro-4-((2-(1-methyl-1H-pyrazol-4-yl)pyridin-4-yl)oxy)phenyl)-3-(4-fluorophenyl)-1-(2-methoxyethyl)-2,4-dioxo-1,2,3,4-tetrahydropyrimidin-5-carboxamide], for which the IC50 in assay [1] and in assay [2] was below 10 nM throughout.

Consider `Cn1cc(-c2cc(Oc3ccc(NC(=O)c4cn(C5CCCC5)c(=O)n(-c5ccc(F)cc5)c4=O)cc3F)ccn2)cn1` [No. 11, 1-cyclopentyl-N-(3-fluoro-4-((2-(1-methyl-1H-pyrazol-4-yl)pyridin-4-yl)oxy)phenyl)-3-(4-fluorophenyl)-2,4-dioxo-1,2,3,4-tetrahydropyrimidin-5-carboxamide], for which the IC50 in assay [1] and in assay [2] was below 10 nM in each case.

As to `Cn1cc(-c2cc(Oc3ccc(NC(=O)c4cn(-c5ccc(F)cc5)c(=O)n(-c5ccc(F)cc5)c4=O)cc3F)ccn2)cn1` [No. 12, N-(3-fluoro-4-((2-(1-methyl-1H-pyrazol-4-yl)pyridin-4-yl)oxy)phenyl)-1,3-bis(4-fluorophenyl)-2,4-dioxo-1,2,3,4-tetrahydropyrimidin-5-carboxamide], the half-inhibitory concentration (IC50) in assay [1] and in assay [2] was above 100 nM throughout.

As to `CC(C)n1cc(C(=O)Nc2ccc(Oc3ccnc(-c4cnn(C)c4)c3)c(F)c2)c(=O)n(-c2ccccc2)c1=O` [No. 13, N-(3-fluoro-4-((2-(1-methyl-1H-pyrazol-4-yl)pyridin-4-yl)oxy)phenyl)-1-isopropyl-2,4-dioxo-3-phenyl-1,2,3,4-tetrahydropyrimidin-5-carboxamide], the IC50 in assay [1] and in assay [2] was 10 to 100 nM in each case.

As for `CC(C)n1cc(C(=O)Nc2ccc(Oc3ccnc(-c4cnn(C)c4)c3)c(F)c2)c(=O)n(-c2ccc(Cl)cc2)c1=O` [No. 14, 3-(4-chlorophenyl)-N-(3-fluoro-4-((2-(1-methyl-1H-pyrazol-4-yl)pyridin-4-yl)oxy)phenyl)-1-isopropyl-2,4-dioxo-1,2,3,4-tetrahydropyrimidin-5-carboxamide], the half-maximal inhibitory concentration (IC50) in assay [1] and in assay [2] was below 10 nM in each case.

With `Cc1ccc(-n2c(=O)c(C(=O)Nc3ccc(Oc4ccnc(-c5cnn(C)c5)c4)c(F)c3)cn(C(C)C)c2=O)cc1` [No. 15, N-(3-fluoro-4-((2-(1-methyl-1H-pyrazol-4-yl)pyridin-4-yl)oxy)phenyl)-1-isopropyl-2,4-dioxo-3-p-tolyl-1,2,3,4-tetrahydropyrimidin-5-carboxamide], the IC50 in assay [1] and in assay [2] was below 10 nM each time.

For the compound `COc1ccc(-n2c(=O)c(C(=O)Nc3ccc(Oc4ccnc(-c5cnn(C)c5)c4)c(F)c3)cn(C(C)C)c2=O)cc1` [No. 16, N-(3-fluoro-4-((2-(1-methyl-1H-pyrazol-4-yl)pyridin-4-yl)oxy)phenyl)-1-isopropyl-3-(4-methoxyphenyl)-2,4-dioxo-1,2,3,4-tetrahydropyrimidin-5-carboxamide], the IC50 in assay [1] and in assay [2] was above 100 nM each time.

In the case of `CC(C)n1cc(C(=O)Nc2ccc(Oc3ccnc(-c4cnn(C)c4)c3)c(F)c2)c(=O)n(-c2cccc(F)c2)c1=O` [No. 17, N-(3-fluoro-4-((2-(1-methyl-1H-pyrazol-4-yl)pyridin-4-yl)oxy)phenyl)-3-(3-fluorophenyl)-1-isopropyl-2,4-dioxo-1,2,3,4-tetrahydropyrimidin-5-carboxamide], the concentration for half-maximal inhibition (IC50) in assay [1] and in assay [2] was below 10 nM each time.

For the compound `CC(C)n1cc(C(=O)Nc2ccc(Oc3ccnc(-c4cnn(C)c4)c3)c(F)c2)c(=O)n(-c2ccccc2F)c1=O` [No. 18, N-(3-fluoro-4-((2-(1-methyl-1H-pyrazol-4-yl)pyridin-4-yl)oxy)phenyl)-3-(2-fluorophenyl)-1-isopropyl-2,4-dioxo-1,2,3,4-tetrahydropyrimidin-5-carboxamide], the half-inhibitory concentration (IC50) (commonly the concentration at which inhibition is half-maximal) was below 10 nM in assay [1] and 10 to 100 nM in assay [2].

`CC(C)n1cc(C(=O)Nc2ccc(Oc3ccnc(-c4cnn(C)c4)c3)c(F)c2)c(=O)n(-c2ccc(F)c(F)c2)c1=O` [No. 19, 3-(3,4-difluorophenyl)-N-(3-fluoro-4-((2-(1-methyl-1H-pyrazol-4-yl)pyridin-4-yl)oxy)phenyl)-1-isopropyl-2,4-dioxo-1,2,3,4-tetrahydropyrimidin-5-carboxamide]: the IC50 in assay [1] and in assay [2] was below 10 nM throughout.

Regarding `CC(C)n1cc(C(=O)Nc2ccc(Oc3ccnc(-c4cnn(C)c4)c3)c(F)c2)c(=O)n(-c2ccncc2)c1=O` [No. 20, N-(3-fluoro-4-((2-(1-methyl-1H-pyrazol-4-yl)pyridin-4-yl)oxy)phenyl)-1-isopropyl-2,4-dioxo-3-(pyridin-4-yl)-1,2,3,4-tetrahydropyrimidin-5-carboxamide], the IC50 in assay [1] and in assay [2] was above 100 nM each time.

For the compound `CC(C)n1cc(C(=O)Nc2ccc(Oc3ccnc(-c4cnn(C)c4)c3)c(F)c2)c(=O)n(-c2cnn(C)c2)c1=O` [No. 21, N-(3-fluoro-4-((2-(1-methyl-1H-pyrazol-4-yl)pyridin-4-yl)oxy)phenyl)-1-isopropyl-3-(1-methyl-1H-pyrazol-4-yl)-2,4-dioxo-1,2,3,4-tetrahydropyrimidin-5-carboxamide], the results for the concentration for half-maximal inhibition (IC50) in assay [1] and in assay [2] were 10 to 100 nM and above 100 nM, respectively.

In the case of `CC(C)n1cc(C(=O)Nc2ccc(Oc3ccnc(-c4cnn(C)c4)c3)c(F)c2)c(=O)n([C@H]2CC[C@H](C)CC2)c1=O` [No. 22, N-(3-fluoro-4-((2-(1-methyl-1H-pyrazol-4-yl)pyridin-4-yl)oxy)phenyl)-1-isopropyl-3-((1R,4R)-4-methylcyclohexyl)-2,4-dioxo-1,2,3,4-tetrahydropyrimidin-5-carboxamide], the values for the concentration for half-maximal inhibition (IC50) in assay [1] and in assay [2] were 10 to 100 nM and above 100 nM, respectively.

For the compound `CC(C)n1nc(C(=O)Nc2ccc(Oc3ccnc(-c4cnn(C)c4)c3)cc2)c(=O)n(-c2ccc(F)cc2)c1=O` [No. 23, 4-(4-fluorophenyl)-2-isopropyl-N-(4-((2-(1-methyl-1H-pyrazol-4-yl)pyridin-4-yl)oxy)phenyl)-3,5-dioxo-2,3,4,5-tetrahydro-1,2,4-triazin-6-carboxamide], the half-maximal inhibitory concentration (IC50) in assay [1] and in assay [2] was 10 to 100 nM in each case.

With `CC(C)n1nc(C(=O)Nc2ccc(Oc3ccnc(-c4cnn(C)c4)c3)c(F)c2)c(=O)n(-c2ccc(F)cc2)c1=O` [No. 24, N-(3-fluoro-4-((2-(1-methyl-1H-pyrazol-4-yl)pyridin-4-yl)oxy)phenyl)-4-(4-fluorophenyl)-2-isopropyl-3,5-dioxo-2,3,4,5-tetrahydro-1,2,4-triazine-6-carboxamide], the IC50 was below 10 nM in assay [1] and 10 to 100 nM in assay [2].

`COc1ccc(-c2cnc(N)c(-c3ccc(NC(=O)c4cn(C(C)C)c(=O)n(-c5ccc(F)cc5)c4=O)cc3F)c2)cc1OC` [No. 37, N-(4-(2-amino-5-(3,4-dimethoxyphenyl)pyridin-3-yl)-3-fluorophenyl)-3-(4-fluorophenyl)-1-isopropyl-2,4-dioxo-1,2,3,4-tetrahydropyrimidin-5-carboxamide]: the 50% inhibitory concentration (IC50) is below 10 nM in assay [1] and 10 to 100 nM in assay [2].

For `CC(C)n1cc(C(=O)Nc2ccc(-c3cc(-c4cnn(C)c4)cnc3N)c(F)c2)c(=O)n(-c2ccc(F)cc2)c1=O` [No. 38, N-(4-(2-amino-5-(1-methyl-1H-pyrazol-4-yl)pyridin-3-yl)-3-fluorophenyl)-3-(4-fluorophenyl)-1-isopropyl-2,4-dioxo-1,2,3,4-tetrahydropyrimidin-5-carboxamide], the IC50 in assay [1] and in assay [2] was below 10 nM each time.

Turning to `COc1cc(-c2cnc(N)c(-c3ccc(NC(=O)c4cn(C(C)C)c(=O)n(-c5ccc(F)cc5)c4=O)cc3F)c2)ccc1OC[C@H]1COCCO1` [No. 39, (R)—N-(4-(5-(4-((1,4-dioxan-2-yl)methoxy)-3-methoxyphenyl)-2-aminopyridin-3-yl)-3-fluorophenyl)-3-(4-fluorophenyl)-1-isopropyl-2,4-dioxo-1,2,3,4-tetrahydropyrimidin-5-carboxamide], the IC50 in assay [1] was below 10 nM; in assay [2] it was 10 to 100 nM.

Turning to `CC(C)n1cc(C(=O)Nc2ccc(-c3cc(-c4cn[nH]c4)cnc3N)c(F)c2)c(=O)n(-c2ccc(F)cc2)c1=O` [No. 40, N-(4-(2-amino-5-(1H-pyrazol-4-yl)pyridin-3-yl)-3-fluorophenyl)-3-(4-fluorophenyl)-1-isopropyl-2,4-dioxo-1,2,3,4-tetrahydropyrimidin-5-carboxamide], the 50% inhibitory concentration (IC50) in assay [1] and in assay [2] was above 100 nM throughout.

On to `CC(C)n1cc(C(=O)Nc2ccc(Oc3ccnc4[nH]cc(Br)c34)c(F)c2)c(=O)n(-c2ccc(F)cc2)c1=O` [No. 42], for which the half-maximal inhibitory concentration (IC50) in assay [1] and in assay [2] was below 10 nM throughout.

For `CC(C)n1cc(C(=O)Nc2ccc(Oc3ncnc4[nH]cc(-c5ccccc5)c34)c(F)c2)c(=O)n(-c2ccc(F)cc2)c1=O` [No. 44, N-(3-fluoro-4-((5-phenyl-7H-pyrrolo[2,3-d]pyrimidin-4-yl)oxy)phenyl)-3-(4-fluorophenyl)-1-isopropyl-2,4-dioxo-1,2,3,4-tetrahydropyrimidin-5-carboxamide], the IC50 is below 10 nM in assay [1] and 10 to 100 nM in assay [2].
